Results as given in ChEMBL document CHEMBL4229496, “Discovery of small molecule inhibitors of adenovirus by disrupting E3-19K/HLA-A2 interactions” (Bioorg Med Chem Lett, 2018).
Structures can show the parent of a compound that is named as a salt.

Target: HLA class I histocompatibility antigen, A alpha chain (Homo sapiens, UniProt P04439, D140Y/D185E/D98H/E176V/E277Q/G131W/G231S/I119V/I121R/I166T/I218V/L300P/L318F/N151K/N90K/P208A/P217A/Q86G/Q94H/R138H/R169H/T345S)
Assay: Binding affinity to human biotinylated HLA-A2 by surface plasmon resonance assay

Compound | Kd [µM]
COc1ccc(CCN2CCC(Nc3nc4ccccc4n3Cc3ccc(F)cc3)CC2)cc1 [ASTEMIZOLE] | 2.5 to 75
COc1cc2nc(N3CCN(C(=O)C4COc5ccccc5O4)CC3)nc(N)c2cc1OC (stereo unspecified) [DOXAZOSIN MESYLATE] | 15.7
O=C(CCCN1CCC(O)(c2ccc(Cl)cc2)CC1)c1ccc(F)cc1 [HALOPERIDOL] | < 10
O=C(c1ccc(OCCN2CCCCC2)cc1)c1c(-c2ccc(O)cc2)sc2cc(O)ccc12 [RALOXIFENE HYDROCHLORIDE] | 22
O=C(CCCN1CCC2(CC1)C(=O)NCN2c1ccccc1)c1ccc(F)cc1 [SPIPERONE] | 2.5 to 75
O=c1n(CCCN2CCN(c3cccc(Cl)c3)CC2)nc2ccccn12 [TRAZODONE HYDROCHLORIDE] | 2.5
